Patent US20240376092A1 (priority 2021, published 2024)
Like-named read-outs stand apart in the source and are kept apart here.

Tests used:
cDC2 = assay type: cell-based, mouse
[1] = tested on: HEK293 cells expressing ΔCR PrP; test: cells; assay type: cell-based; set-up: Emax: dose or concentration left out as unconfirmed; conditions: for Emax at 1 µM / Emax: HEK293, 48 h, read-out: % RMAX: maximum rescuing effect, expressed as percentage of the effect of SM3(LD24) at the same concentration; for IC50: HEK293, read-out: IC50 (rescuing dose at 50%)
naive HEK293 cells = test: Intrinsic toxicity in naive HEK293 cells (MTT); assay type: cell-based; conditions: 8-point dose-response curve, 48 h
Text: FIG. 3. Dose-response analysis of selected compounds. (A) Chemical structures of the selected molecules are shown in panel. (B) A dose-response analysis using the DBCA was employed to evaluate the anti-ΔCR PrP effects of the different molecules. The graphs show a quantification of the dose-dependent, rescuing effect of each molecule. Average values were obtained from a minimum of 3 independent experiments (n≥3), and expressed as a percentage of cell viability in untreated cells. Data were fitted to a sigmoidal function using a 4-parameter logistic (4PL) non-linear regression model, allowing the estimation of the half-maximal inhibitory concentration (IC50). (C) The intrinsic toxicity of each compound was evaluated in naive HEK293 cells, exposed to each molecule/concentration for 48 h at 37° C. Cytotoxicity was evaluated by MTT. Average values were obtained from a minimum of 3 independent experiments (n≥3), and expressed as a percentage of cell viability in untreated cells. Data were fitted to an inverse sigmoidal function using a 4PL non-linear regression model, allowing the estimation of the half-maximal toxicity dose (LD50).
The DBCA was performed as described previously^24, with minor modifications. Briefly, HEK293 cells expressing ΔCR PrP were cultured at ˜60% confluence in 24-well plates on day 1. On day 2, cells were treated with 500 μg/mL of Zeocinfor. Medium (containing fresh Zeocin and/or compound or vehicle) was replaced every 24 hr. On day 5, cell medium was removed and cells were incubated with 1 mg/mL of 3-(4,5-dimethylthiazol-2-yl)-2,5-diphenyltetrazolium bromide (MTT, Sigma Aldrich, St. Louis, MO) in PBS for 30 min at 37° C. MTT was carefully removed, and cells were re-suspended in 500 μL of DMSO. Values for each well were obtained by measuring at 570 nm, using a plate spectrophotometer (Biotek).

[2] = molecular target: full-length human recombinant PrPC (Homo sapiens, UniProt P04156); conditions: cited from earlier work
Fyn kinase = assay type: cell-based, mouse
[3] = mouse, in vivo
[4] = tested on: primary hippocampal neurons; assay type: cell-based, mouse
M1000 prion strain = tested on: M1000 prion strain; set-up: species or system mouse; conditions: slices treated with M1000 prion lysate

O=C(CN1c2ccc(C(F)(F)F)cc2-c2ccccc2S1(=O)=O)NC(CCO)CCO [SM887, 2-[5,5-dioxido-9-(trifluoromethyl)-6H-dibenzo[c,e][1,2]thiazin-6-yl]-N-[3-hydroxy-1-(2-hydroxyethyl)propyl]acetamide]
antigen-specific CD4+ T cell proliferation after cDC2 treatment (cDC2): significantly affected
Emax at 1 µM [1]: ~50%

O=C(CN1c2cc(Br)ccc2-c2ccccc2S1(=O)=O)NC1CCCCC1 [SM228, 2-(8-Bromo-5,5-dioxido-6H-dibenzo[c,e][1,2]thiazin-6-yl)-N-cyclohexylacetamide]
LD50 (lethal dose at 50%) (naive HEK293 cells): 37.46 µM
Emax [1]: 123%
IC50 [1]: 210 nM

CCOc1ccc2c(c1)S(=O)(=O)N(CC(=O)NC1CCCCC1)c1ccc(C(F)(F)F)cc1-2 [SM883, N-cyclohexyl-2-(3-ethoxy-5,5-dioxido-9-(trifluoromethyl)-6H-dibenzo[c,e][1,2]thiazin-6-yl)acetamide]
LD50 (lethal dose at 50%) (naive HEK293 cells): >100 µM
Emax [1]: 166%
IC50 [1]: 14 nM

CCC(CN(C)C)NC(=O)CN1c2ccc(C(F)(F)F)cc2-c2ccc(F)cc2S1(=O)=O (stereo not shown) [SM889, N-{1-[(dimethylamino)methyl]propyl}-2-[3-fluoro-5,5-dioxido-9-(trifluoromethyl)-6H-dibenzo[c,e][1,2]thiazin-6-yl]acetamide]
antigen-specific CD4+ T cell proliferation after cDC2 treatment (cDC2): suppress antigen-specific CD4+ T cell proliferation
Emax at 1 µM [1]: ~50%

Fe(III)-TMPyP [reference compound]
affinity for PrPC, previously reported [2]: high
effect on Aβ-induced Fyn phosphorylation (Fyn kinase): prevented
EAE clinical score / disease severity [3]: ameliorate EAE severity
effect on Aβ-induced decrease of post-synaptic markers (GluN2A, GluN2B, GluA1, GluA2, PSD-95) [4]: rescued

O=C(CN1c2ccc(Br)cc2-c2ccccc2S1(=O)=O)NC1CCCCC1 [SM3, 2-(9-Bromo-5,5-dioxido-6H-dibenzo[c,e][1,2]thiazin-6-yl)-N-cyclohexylacetamide, reference compound]
LD50 (lethal dose at 50%) (naive HEK293 cells): >100 µM
Emax [1]: 100%
IC50 [1]: 1100 nM

O=C(CN1c2ccc(C(F)(F)F)cc2-c2ccc(F)cc2S1(=O)=O)NN1CCOCC1 [SM881, 2-[3-Fluoro-5,5-dioxido-9-(trifluoromethyl)-6H-dibenzo[c,e][1,2]thiazin-6-yl]-N-morpholin-4-ylacetamide]
LD50 (lethal dose at 50%) (naive HEK293 cells): >100 µM
Emax [1]: 150%
IC50 [1]: 32 nM

O=C(CN1c2ccc(C(F)(F)F)cc2-c2ccc(F)cc2S1(=O)=O)NC1CCCCC1 [SM882, N-cyclohexyl-2-(3-fluoro-5,5-dioxido-9-(trifluoromethyl)-6H-dibenzo[c,e][1,2]thiazin-6-yl)acetamide]
LD50 (lethal dose at 50%) (naive HEK293 cells): >100 µM
Emax [1]: 139%
IC50 [1]: 44 nM

O=C(CN1c2ccc(C(F)(F)F)cc2-c2ccc(F)cc2S1(=O)=O)NC(CCO)CCO [SM888, 2-[3-Fluoro-5,5-dioxido-9-(trifluoromethyl)-6H-dibenzo[c,e][1,2]thiazin-6-yl]-N-[3-hydroxy-1-(2-hydroxyethyl)propyl]acetamide]
antigen-specific CD4+ T cell proliferation after cDC2 treatment (cDC2): suppress antigen-specific CD4+ T cell proliferation
Emax at 1 µM [1]: ~50%

CCC(CC)NC(=O)CN1c2ccc(C(F)(F)F)cc2-c2ccc(F)cc2S1(=O)=O [SM884, N-(1-Ethylpropyl)-2-[3-fluoro-5,5-dioxido-9-(trifluoromethyl)-6H-dibenzo[c,e][1,2]thiazin-6-yl]acetamide]
rescue of long-term potentiation (LTP) (M1000 prion strain; 0.03 μM): 71%
rescue of long-term potentiation (LTP) (M1000 prion strain; 0.1 μM): 34%
LD50 (lethal dose at 50%) (naive HEK293 cells): >100 µM
Emax [1]: 211%
IC50 [1]: 18 nM

CC(=O)c1cccc(NC(=O)CN2c3ccc(Br)cc3-c3ccccc3S2(=O)=O)c1 [SM168]
Emax at 1 µM [1]: 46.2%

CN(C)CCOc1ccc2c(c1)-c1ccccc1S(=O)(=O)N2CC(=O)NC1CCCCC1 [SM230, N-Cyclohexyl-2-[9-[2-(dimethylamino)ethoxy]-5,5-dioxido-6H-dibenzo[c,e][1,2]thiazin-6-yl]acetamide]
Emax at 1 µM [1]: 44.9%

O=C(CN1c2ccc(Br)cc2-c2ccccc2S1(=O)=O)NC1CCCC1 [SM4, 2-(9-Bromo-5,5-dioxido-6H-dibenzo[c,e][1,2]thiazin-6-yl)-N-cyclopentylacetamide]
Emax at 1 µM [1]: 66.6%

O=C(CN1c2ccc(C(F)(F)F)cc2-c2ccc(F)cc2S1(=O)=O)NC1CCOCC1 [SM885, 2-[3-Fluoro-5,5-dioxido-9-(trifluoromethyl)-6H-dibenzo[c,e][1,2]thiazin-6-yl]-N-(tetrahydro-2H-pyran-4-yl)acetamide]
LD50 (lethal dose at 50%) (naive HEK293 cells): >100 µM
Emax [1]: 123%
IC50 [1]: 53 nM

O=C(CN1c2ccc(C(F)(F)F)cc2-c2ccccc2S1(=O)=O)N[C@H]1CC[C@H](O)CC1 [SM588, 2-[5,5-dioxido-9-(trifluoromethyl)-6H-dibenzo[c,e][1,2]thiazin-6-yl]-N-(trans-4-hydroxycyclohexyl)acetamide]
Emax at 1 µM [1]: 10.6%

O=C(CN1c2ccc(Br)cc2-c2ccccc2S1(=O)=O)Nc1c(F)cccc1F [SM163]
Emax at 1 µM [1]: 104%

CC(C)(C)NC(=O)CN1c2ccc(Br)cc2-c2ccccc2S1(=O)=O [SM177]
Emax at 1 µM [1]: 58.4%

O=C(CN1c2cccc(Br)c2-c2ccccc2S1(=O)=O)NC1CCCCC1 [SM229, 2-(10-bromo-5,5-dioxido-6H-dibenzo[c,e][1,2]thiazin-6-yl)-N-cyclohexylacetamide]
LD50 (lethal dose at 50%) (naive HEK293 cells): 28.21 µM
Emax [1]: 121%
IC50 [1]: 250 nM

O=C(CN1c2cc(C(F)(F)F)ccc2-c2ccccc2S1(=O)=O)NC1CCCCC1 [SM338, N-cyclohexyl-2-[5,5-dioxido-8-(trifluoromethyl)-6H-dibenzo[c,e][1,2]thiazin-6-yl]acetamide]
Emax at 1 µM [1]: 87.6%

Cc1ccc2c(c1)-c1ccccc1S(=O)(=O)N2CC(=O)NC1CCCCC1 [SM181]
Emax at 1 µM [1]: 59.4%

CSc1ccc2c(c1)-c1ccccc1S(=O)(=O)N2CC(=O)NC1CCCCC1 [SM340, N-cyclohexyl-2-[9-(methylthio)-5,5-dioxido-6H-dibenzo[c,e][1,2]thiazin-6-yl]acetamide]
Emax at 1 µM [1]: 23%

CC(C)C(NC(=O)CN1c2ccc(Br)cc2-c2ccccc2S1(=O)=O)C(C)C [SM223]
Emax at 1 µM [1]: 54.7%
